{
  "source": "patent US7858044B2",
  "about": "“Multi-well plate providing a high-density storage and assay platform” (Nexus Biosystems, Inc., priority 2003, dated 2010)",
  "molecular_target": "recombinant human CYP 3A4 (Homo sapiens, UniProt P08684)",
  "sequence (P08684 whole entry)": "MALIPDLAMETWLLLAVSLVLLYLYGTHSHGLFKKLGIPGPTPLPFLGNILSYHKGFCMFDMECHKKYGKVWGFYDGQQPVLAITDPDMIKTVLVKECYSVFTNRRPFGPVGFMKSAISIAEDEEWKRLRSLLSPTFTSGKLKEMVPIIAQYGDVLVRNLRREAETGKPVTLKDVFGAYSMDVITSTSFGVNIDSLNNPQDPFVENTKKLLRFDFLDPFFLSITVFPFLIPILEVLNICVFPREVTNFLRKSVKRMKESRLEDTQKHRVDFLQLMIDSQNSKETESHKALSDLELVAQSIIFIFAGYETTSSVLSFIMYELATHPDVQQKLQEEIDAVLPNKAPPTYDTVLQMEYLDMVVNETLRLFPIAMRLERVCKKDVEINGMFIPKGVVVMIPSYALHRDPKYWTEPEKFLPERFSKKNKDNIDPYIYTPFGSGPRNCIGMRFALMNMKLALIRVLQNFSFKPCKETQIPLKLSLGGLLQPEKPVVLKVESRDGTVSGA",
  "test": "CYP 3A4 isozyme inhibition screen with fluorogenic substrate BOMR in 3456-well plate",
  "details": "concentration series",
  "data": [
    {"smiles": "C[C@]12CC[C@H]3[C@@H](CCC4=CC(=O)CC[C@@]43C)[C@@H]1CC[C@@H]2O", "note": "[testosterone]", "values": [
      {"measurement": "Potentiation of CYP 3A4 isozyme", "result": "Potentiation"}
    ]}
  ]
}
